Results: patent publication US9890147B2 (BAYER PHARMA AKTIENGESELLSCHAFT, priority 2012, dated 2018)

Columns and labels:
BRD4 (BD1) = biological target: T1, BRD4 (BD1) (Homo sapiens, UniProt O60885); test: Binding assay BRD4/acetylated peptide H4 (TR-FRET protein-protein interaction assay)
T1 construct: with relatively long constructs also being possible, preferably amino acids 44-168; made in house; host or cells: E. coli
Method in brief: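 His6-BRD4 BD1 (aa 67-152, E. coli), usually 10 nM, with biotinylated tetra-acetylated H4 peptide in HEPES pH 7.5 buffer; 11 compound concentrations 0.1 nM–20 μM in duplicate, 10 min preincubation, 1 h at 22 °C then ≥3 h at 4 °C. TR-FRET 665/620 ratio; IC50 by 4-parameter fit.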

MOLM-13 cells = test: Cell proliferation assay (alamarBlue), MOLM-13; format: cell-based; conditions: Homo sapiens, 96 hours incubation, inhibition of cell proliferation
Method in brief: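 Cells in RPMI1640/10% FCS read by alamarBlue fluorescence (ex 530, em 590 nm) after overnight 37 °C incubation, then treated at 1E-5 to 1E-8 M for 96 h. Pre-treatment values subtracted from endpoint values and compared with buffer-only wells; IC50 is 50% proliferation inhibition.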

MV4-11 cells = test: Cell proliferation assay (alamarBlue), MV4-11; format: cell-based; conditions: Homo sapiens, 72 hours incubation, inhibition of cell proliferation
Protocol: (§1) In accordance with the invention, the capability of the substances to inhibit cell proliferation was determined Cell viability was determined using the alamarBlue® reagent (Invitrogen) in a Victor X3 Multilabel Reader (Perkin Elmer). The excitation wavelength was 530 nm and the emission wavelenth […].
The MV4-11 cells (ATCC, CRL 9591) were sown at a concentration of 5000 cells/well in 100 μl growth medium (RPMI1640, 10% FCS) on 96-well microtitre plates.
(§2) After an overnight incubation at 37° C., the fluorescence values (CI values) were determined. The plates were then treated with various substance dilutions (1E-5 M, 3E-6 M, 1E-6M, 3E-7 M, 1E-7 M, 3E-8 M, 1E-8 M) and incubated at 37° C. for 72 (MV4-11-, LOX-IMVI cells), 96 (MOLM-13-, B16F10-, MDA-MB-431-, Caov-3 cells), 120 (MOLP-8-, KMS-12-PE cells) or 168 (LAPC-4 cells) hours. The fluorescence values (CO values) were then determined. For the data analysis, the CI values were subtracted from the CO values and the results were compared between cells treated with different dilutions of the substance or with buffer solution only. These were used to calculate the IC 50 values (substance concentration required for 50% inhibition of cell proliferation).

LOX-IMVI cells = test: Cell proliferation assay (alamarBlue), LOX-IMVI; format: cell-based; conditions: Homo sapiens, 72 hours incubation, inhibition of cell proliferation
Protocol: as §1
The LOX-IMVI cells (NCI-60) were sown at a concentration of 1000 cells/well in 100 μl growth medium (RPMI1640, 10% FCS) on 96-well microtitre plates.
as §2

MOLP-8 cells = test: Cell proliferation assay (alamarBlue), MOLP-8; format: cell-based; conditions: Homo sapiens, 120 hours incubation, inhibition of cell proliferation
Protocol: as §1
The MOLP-8 cells (DSMZ, ACC 569) were sown at a concentration of 4000 cells/well in 100 μl growth medium (RPMI1640, 20% FCS) on 96-well microtitre plates.
as §2

KMS-12-PE cells = test: Cell proliferation assay (alamarBlue), KMS-12-PE; format: cell-based; conditions: Homo sapiens, 120 hours incubation, inhibition of cell proliferation
Protocol: as §1
The KMS-12-PE cells (DSMZ, ACC 606) were sown at a concentration of 4000 cells/well in 100 μl growth medium (RPMI1640, 20% FCS) on 96-well microtitre plates.
as §2

Caov-3 cells = test: Cell proliferation assay (alamarBlue), Caov-3; format: cell-based; conditions: Homo sapiens; inhibition of cell proliferation, Caov-3 (ovarian carcinoma), 96 hours
Protocol: as §1
The MDA-MB-231 cells (DSMZ, ACC 732) were sown at a concentration of 4000 cells/well in 100 μl growth medium (DMEM/Ham's F12 medium, 10% FCS) on 96-well microtitre plates. The Caov-3 cells (ATCC, HTB-75) were sown at a concentration of 2000 cells/well in 100 μl growth medium (MEM Earle's medium, 10% FCS) on 96-well microtitre plates.
as §2

| IC50 (BRD4 (BD1)) [nM] | IC50 (MOLM-13 cells) [nM] | IC50 (MV4-11 cells) [nM] | SMILES | IC50 (LOX-IMVI cells) [nM] | IC50 (MOLP-8 cells) [nM] | IC50 (KMS-12-PE cells) [nM] | IC50 (Caov-3 cells) [nM] |
| --- | --- | --- | --- | --- | --- | --- | --- |
| 80 | 180 | 120 | CNC(=O)N1N=C(c2ccc(N3CCN(C)CC3)cc2)c2cc(OC)c(OC)cc2CC1C (racemic) [Example 127, (±)-7,8-dimethoxy-N,4-dimethyl-1-[4-(4-methylpiperazin-1-yl)phenyl]-4,5-dihydro-3H-2,3-benzodiazepine-3-carboxamide] | 250 | 90 | 90 | 240 |
| 50 | 220 | 180 | CNC(=O)N1N=C(c2ccc(N3CC(F)C3)cc2)c2cc(OC)c(OC)cc2CC1C (racemic) [Example 129, (±)-1-[4-(3-fluoroazetidin-1-yl)phenyl]-7,8-dimethoxy-N,4-dimethyl-4,5-dihydro-3H-2,3-benzodiazepine-3-carboxamide] | 580 | 150 | 120 | 420 |
| 50 | 110 | 40 | CNC(=O)N1N=C(c2ccc(N3CCNCC3)cc2)c2cc(OC)c(OC)cc2CC1C (racemic) [Example 131, (±)-7,8-dimethoxy-N,4-dimethyl-1-[4-(piperazin-1-yl)phenyl]-4,5-dihydro-3H-2,3-benzodiazepine-3-carboxamide] | 70 | 30 | 30 | 50 |
| 30 | 200 | 130 | CNC(=O)N1N=C(c2ccc(N3CCN(C(C)=O)CC3)cc2)c2cc(OC)c(OC)cc2CC1C (racemic) [Example 132, (±)-1-[4-(4-acetylpiperazin-1-yl)phenyl]-7,8-dimethoxy-N,4-dimethyl-4,5-dihydro-3H-2,3-benzodiazepine-3-carboxamide] | 420 | 120 | 110 | 320 |
| 50 | 180 | 80 | CNC(=O)N1N=C(c2ccc(N3CCN(C(=O)C(F)(F)F)CC3)cc2)c2cc(OC)c(OC)cc2CC1C (racemic) [Example 133, (±)-7,8-dimethoxy-N,4-dimethyl-1-{4-[4-(trifluoroacetyl)piperazin-1-yl]phenyl}-4,5-dihydro-3H-2,3-benzodiazepine-3-carboxamide] | 170 | 70 | 80 | 180 |
| 50 | 200 | 120 | CNC(=O)N1N=C(c2ccc(N3CCN(S(C)(=O)=O)CC3)cc2)c2cc(OC)c(OC)cc2CC1C (racemic) [Example 135, (±)-7,8-dimethoxy-N,4-dimethyl-1-{4-[4-(methylsulphonyl)piperazin-1-yl]phenyl}-4,5-dihydro-3H-2,3-benzodiazepine-3-carboxamide] | 360 | 130 | 120 | 300 |
| 40 | 210 | 130 | CNC(=O)N1N=C(c2ccc(N3CCCCC3)cc2)c2cc(OC)c(OC)cc2CC1C (racemic) [Example 139, (±)-7,8-dimethoxy-N,4-dimethyl-1-[4-(piperidin-1-yl)phenyl]-4,5-dihydro-3H-2,3-benzodiazepine-3-carboxamide] | 380 | 130 | 110 | 310 |
| 30 | 70 | 50 | CNC(=O)N1N=C(c2ccc(-n3nc(-c4ccccc4)cc3C)cc2)c2cc(OC)c(OC)cc2CC1C (racemic) [Example 147, (±)-7,8-Dimethoxy-N,4-dimethyl-1-[4-(5-methyl-3-phenyl-1H-pyrazol-1-yl)phenyl]-4,5-dihydro-3H-2,3-benzodiazepine-3-carboxamide] | 180 | 80 | 60 | 180 |
| 40 | 80 | 70 | CNC(=O)N1N=C(c2ccc(-n3nc(-c4ccccc4)cc3C3CC3)cc2)c2cc(OC)c(OC)cc2CC1C (racemic) [Example 148, (±)-1-[4-(5-cyclopropyl-3-phenyl-1H-pyrazol-1-yl)phenyl]-7,8-dimethoxy-N,4-dimethyl-4,5-dihydro-3H-2,3-benzodiazepine-3-carboxamide] | 250 | 90 | 80 | 300 |
| 210 | 90 | 190 | CNC(=O)N1N=C(c2ccc(-c3c(C)noc3C)cc2)c2cc(Cl)c(OC)cc2CC1C (racemic) [Example 157, (±)-8-chloro-1-[4-(3,5-dimethylisoxazol-4-yl)-phenyl]-7-methoxy-N,4-dimethyl-4,5-dihydro-3H-2,3-benzodiazepine-3-carboxamide] | 580 | 120 | 240 | 420 |
| 40 | 240 | 120 | CNC(=O)N1N=C(c2ccc(N3CCOC3=O)cc2)c2cc(OC)c(OC)cc2C[C@@H]1C [Example 34.1, (4S)-7,8-Dimethoxy-N,4-dimethyl-1-[4-(2-oxooxazolidin-3-yl)phenyl]-4,5-dihydro-3H-2,3-benzodiazepine-3-carboxamide] | 440 | 80 | 80 | 310 |
| 30 | 110 | 50 | CNC(=O)N1N=C(c2ccc(-c3c(C)nn(C)c3C)cc2)c2cc(OC)c(OC)cc2C[C@@H]1C [Example 51.2, (4S)-7,8-dimethoxy-N,4-dimethyl-1-[4-(1,3,5-trimethyl-1H-pyrazol-4-yl)phenyl]-4,5-dihydro-3H-2,3-benzodiazepine-3-carboxamide] | 170 | 50 | 40 | 130 |
| 20 | 150 | 70 | CNC(=O)N1N=C(c2ccc(N3CCC3)cc2)c2cc(OC)c(OC)cc2C[C@@H]1C [Example 128.2, (4S)-1-[4-(azetidin-1-yl)phenyl]-7,8-dimethoxy-N,4-dimethyl-4,5-dihydro-3H-2,3-benzodiazepine-3-carboxamide] | 190 | 50 | 50 | 160 |
| 30 | 60 | 20 | CNC(=O)N1N=C(c2ccc(-n3nc(-c4ccccc4)cc3C)cc2)c2cc(OC)c(OC)cc2C[C@@H]1C [Example 147.1, (4S)-7,8-dimethoxy-N,4-dimethyl-1-[4-(5-methyl-3-phenyl-1H-pyrazol-1-yl)phenyl]-4,5-dihydro-3H-2,3-benzodiazepine-3-carboxamide] | 510 | 20 | 30 | 80 |
| 30 | 80 | 50 | CNC(=O)N1N=C(c2ccc(-n3nc(-c4ccccc4)cc3C3CC3)cc2)c2cc(OC)c(OC)cc2C[C@@H]1C [Example 148.1, (4S)-1-[4-(5-cyclopropyl-3-phenyl-1H-pyrazol-1-yl)phenyl]-7,8-dimethoxy-N,4-dimethyl-4,5-dihydro-3H-2,3-benzodiazepine-3-carboxamide] | 90 | 50 | 50 | 130 |
